Source: patent publication US10722500B2, “Gossypol 7-N-isatin Schiff base compounds with antitumor activities and a method of preparing the same” (SHAANXI PANLONG PHARMACEUTICAL GROUP LIMITED BY SHARE LTD., priority 2018, dated 2020)
Where two headings read alike, the source gives them in different places.

Experiments:
[1] = test system: human gastric cancer cells (SGC-7901); assay: MTT tumor cell proliferation inhibition test, SGC-7901; type: cell-based; settings: SGC-7901 cells, 48 hours treatment, read-out: Half Inhibitory Concentration IC50 SGC-7901
Procedure: (§1) The compounds of the present invention were subjected to tumor cell proliferation inhibition test, and conventional MTT method was used.
(§2) Cell lines: human hepatoma cells (HepG2), human lung cancer cells (A-549), human gastric cancer cells (SGC-7901). The culture medium was DMEM+15% NBS+double antibody.
(§3) Sample solution preparation: after dissolving with DMSO (Merck), PBS (−) was added to obtain 100 μmol/L solution or homogeneous suspension. The solution was diluted with PBS (−) in DMSO to a final concentration of 0.1, 1, 10, 20, 40, 60, 80, 100 μmol/L.
(§4) Gossypol was used as control solution, prepared under the same condition.
(§5) Cell culture: adherent growth Tumor cells were cultured in 1640 medium containing 10% inactivated neonatal bovine serum and penicillin, streptomycin (1 million U/L), placed in carbon dioxide incubator at 37° C., 5% CO2, and saturated humidity. Cells were treated serially passaged 2-3 times. The first culture was washed with PBS 2 times, and digested with trypsin. Fresh culture medium was added evenly, cells were adjusted to a appropriate concentration and transferred into a new culture flask. Cell in an exponential phase were chosen for the tests.
(§6) MTT Assay for Cell Viability and IC50 Determination
(§7) Experimental Principle: Living cells mitochondria in the dehydrogenase can reduce yellow MTT to water-insoluble blue-violet product MT (MTT formazan), deposited in the cells. The amount of production is proportional to the number of living cells. […] DMSO can dissolve blue violet crystals, and the color depth is proportional to the amount contained, so the absorbance measured by the microplate reader can reflect the cell viability.
(§8) Methods: The exponential phase cells were digested and counted and seeded in 96-well plates at a density of 2×10^4/mL at 100 μl per well. After 24 hours of incubation, the cells to be tested were treated with 0.1, 1, 10, 20, 40, 60, 80, 100 μmol/L of the compounds. Each experimental group had 5 wells in each concentration, and the culture medium containing 0.4% DMSO was used as control. After 48 hours, the supernatant was discarded, and 100 μl of MTT ((2-(4,5-dimethyl-2-thiazolyl)-3,5-diphenyl-2H-[…]) (1 mg/mL) was added to each well. After another 4 hours, the supernatant was discarded, and 100 μl of DMSO was added to each well. After mixing, the absorbance was measured at 570 nm using a microplate reader. An IC50 calculation software was used to determine the half inhibitory concentration (IC50).

[2] = test system: human hepatoma cells (HepG2); assay: MTT tumor cell proliferation inhibition test, HepG2; type: cell-based; settings: read-out: Half Inhibitory Concentration IC50 HepG2
Procedure: as §1, §2, §3, §4, §5, §6, §7, §8

[3] = test system: human lung cancer cells (A-549); assay: MTT tumor cell proliferation inhibition test, A-549; type: cell-based; settings: A549 cells, 48 hours treatment, read-out: Half Inhibitory Concentration IC50 A549
Procedure: as §1, §2, §3, §4, §5, §6, §7, §8

[4] = test system: HepG2, A-549, SGC-7901 tumor cells; assay: MTT tumor cell proliferation inhibition test, summary over the three cell lines; type: cell-based, human; settings: the three cell lines tested
Procedure: as §1, §2, §3, §4
as §5, with “Cell in an exponential phase were chosen for the tests.” left out
as §7, with “the” for “the cells. The amount of production is proportional to the number of living”
as §8, with “After 24 hours of incubation, the cells to be tested were treated with 0.1, 1, 10, 20, 40, 60, 80, 100 μmol/L of the compounds. Each experimental group had 5 wells in each concentration, and the culture medium containing 0.4% DMSO was used as control.” left out

[5] = HepG2 cells, MTT, 48 hours treatment

melting point [°C] | IC50 [1] [µM] | IC50 [2, 5] [µM] | IC50 [3] [µM] | Compound | antitumor activities (in words) [4] | IC50 ([2]; HepG2, 48 h) [µM]
209.1 | > 100 | > 100 | 74.1 ± 3.46 | Cc1cc2c(C(C)C)c(O)c(O)c(/C=N/N=C3\C(=O)N(C(C)C)c4ncccc43)c2c(O)c1-c1c(C)cc2c(C(C)C)c(O)c(O)c(/C=N/N=C3/C(=O)N(C(C)C)c4ncccc43)c2c1O [Compound 4, (3Z,3′E)-3,3′-(((1E,1′E)-(1,1′,6,6′,7,7′-hexahydroxy-5,5′-diisopropyl-3,3′-dimethyl-[2,2′-binaphthalene]-8,8′-diyl)bis(methanylylidene))bis(hydrazine-2,1-diylidene))bis(1-isopropyl-1,3-dihydro-2H-pyrrolo[2,3-b]pyridin-2-one)] | – | –
– | 13.4 ± 1.51 | 9.92 ± 0.79 | 17.4 ± 0.79 | CCN1C(=O)/C(=N\N=C\c2c(O)c(O)c(C(C)C)c3cc(C)c(-c4c(C)cc5c(C(C)C)c(O)c(O)c(/C=N/N=C6/C(=O)N(CC)c7ncccc76)c5c4O)c(O)c23)c2cccnc21 [Compound 3, (3Z,3′E)-3,3′-(((1E,1′E)-(1,1′,6,6′,7,7′-hexahydroxy-5,5′-diisopropyl-3,3′-dimethyl-[2,2′-binaphthalene]-8,8′-diyl)bis(methanylylidene))bis(hydrazine-2,1-diylidene))bis(1-ethyl-1,3-dihydro-2H-pyrrolo[2,3-b]pyridin-2-one)] | good activities | –
– | > 100 | 12.5 ± 2.39 | 11.2 ± 2.26 | Cc1cc2c(C(C)C)c(O)c(O)c(/C=N/N=C3\C(=O)N(C)c4ncccc43)c2c(O)c1-c1c(C)cc2c(C(C)C)c(O)c(O)c(/C=N/N=C3/C(=O)N(C)c4ncccc43)c2c1O [Compound 2, (3Z,3′E)-3,3′-(((1E,1′E)-(1,1′,6,6′,7,7′-hexahydroxy-5,5′-diisopropyl-3,3′-dimethyl-[2,2′-binaphthalene]-8,8′-diyl)bis(methanylylidene))bis(hydrazine-2,1-diylidene))bis(1-methyl-1,3-dihydro-2H-pyrrolo[2,3-b]pyridin-2-one)] | good activities | –
– | 12.3 ± 1.43 | 7.94 ± 0.85 | 10.1 ± 1.33 | Cc1cc2c(C(C)C)c(O)c(O)c(/C=N/N=C3\C(=O)N(Cc4ccccc4)c4ncccc43)c2c(O)c1-c1c(C)cc2c(C(C)C)c(O)c(O)c(/C=N/N=C3/C(=O)N(Cc4ccccc4)c4ncccc43)c2c1O [Compound 5, (3Z,3′E)-3,3′-(((1E,1′E)-(1,1′,6,6′,7,7′-hexahydroxy-5,5′-diisopropyl-3,3′-dimethyl-[2,2′-binaphthalene]-8,8′-diyl)bis(methanylylidene))bis(hydrazine-2,1-diylidene))bis(1-benzyl-1,3-dihydro-2H-pyrrolo[2,3-b]pyridin-2-one)] | excellent antitumor activities | –
201.9 | > 100 | > 100 | 62.9 ± 2.15 | CON1C(=O)/C(=N\N=C\c2c(O)c(O)c(C(C)C)c3cc(C)c(-c4c(C)cc5c(C(C)C)c(O)c(O)c(/C=N/N=C6/C(=O)N(OC)c7ncccc76)c5c4O)c(O)c23)c2cccnc21 [Compound 6, (3Z,3′E)-3,3′-(((1E,1′E)-(1,1′,6,6′,7,7′-hexahydroxy-5,5′-diisopropyl-3,3′-dimethyl-[2,2′-binaphthalene]-8,8′-diyl)bis(methanylylidene))bis(hydrazine-2,1-diylidene))bis(1-methoxy-1,3-dihydro-2H-pyrrolo[2,3-b]pyridin-2-one)] | – | –
186.5 | > 100 | > 100 | > 100 | Cc1cc2c(C(C)C)c(O)c(O)c(/C=N/N=C3\C(=O)Nc4ncccc43)c2c(O)c1-c1c(C)cc2c(C(C)C)c(O)c(O)c(/C=N/N=C3/C(=O)Nc4ncccc43)c2c1O [Compound 1, (3Z,3′E)-3,3′-(((1E,1′E)-(1,1′,6,6′,7,7′-hexahydroxy-5,5′-diisopropyl-3,3′-dimethyl-[2,2′-binaphthalene]-8,8′-diyl)bis(methanylylidene))bis(hydrazine-2,1-diylidene))bis(1,3-dihydro-2H-pyrrolo[2,3-b]pyridin-2-one)] | – | –
– | – | – | – | Cc1cc2c(C(C)C)c(O)c(O)c(C=O)c2c(O)c1-c1c(C)cc2c(C(C)C)c(O)c(O)c(C=O)c2c1O [Gossypol] | – | 955 ± 0.41
